From the NIST ThermoML archive (doi:10.1016/j.jct.2018.05.027)

Test: xn = mol fraction of the nth substance listed
Settings: Liquid, Vibrating wire viscometry

CCC(C)O (centres undefined) [butan-2-ol] + CC(C)CC(C)(C)C
viscosity [mPa·s]
Settings | x1 = 0.2999 | x1 = 0.5001 | x1 = 0.7996 | x1 = 1
293.15 K, 100 kPa | 0.6047 | 0.7922 | 1.673 | 3.767
293.15 K, 1000 kPa | 0.609 | 0.797 | 1.707 | 3.813
293.15 K, 5000 kPa | 0.6391 | 0.8463 | 1.793 | 3.978
293.15 K, 10000 kPa | 0.6863 | 0.8968 | 1.913 | 4.235
293.15 K, 20000 kPa | 0.7692 | 1 | 2.14 | 4.696
293.15 K, 30000 kPa | 0.8642 | 1.131 | 2.395 | 5.159
293.15 K, 40000 kPa | 0.9608 | 1.247 | 2.683 | 5.693
293.15 K, 50000 kPa | 1.065 | 1.385 | 2.993 | 6.274
293.15 K, 60000 kPa | 1.173 | 1.541 | 3.276 | 6.831
293.15 K, 70000 kPa | 1.282 | 1.7 | 3.645 | 7.377
293.15 K, 80000 kPa | 1.395 | 1.853 | 3.939 | 8.056
293.15 K, 100000 kPa | 1.66 | 2.169 | 4.702 | 9.598
293.15 K, 120000 kPa | 1.925 | 2.516 | 5.445 | 11.31
293.15 K, 140000 kPa | 2.24 | 2.913 | 6.323 | 13.38
298.15 K, 100 kPa | – | – | – | 3.102
298.15 K, 1000 kPa | – | – | – | 3.123
298.15 K, 5000 kPa | – | – | – | 3.28
298.15 K, 10000 kPa | – | – | – | 3.462
298.15 K, 20000 kPa | – | – | – | 3.873
298.15 K, 30000 kPa | – | – | – | 4.253
298.15 K, 40000 kPa | – | – | – | 4.697
298.15 K, 50000 kPa | – | – | – | 5.142
298.15 K, 60000 kPa | – | – | – | 5.553
298.15 K, 70000 kPa | – | – | – | 6.044
298.15 K, 80000 kPa | – | – | – | 6.544
298.15 K, 100000 kPa | – | – | – | 7.646
298.15 K, 120000 kPa | – | – | – | 9.053
298.15 K, 140000 kPa | – | – | – | 10.43
313.15 K, 100 kPa | 0.4647 | 0.5643 | 0.9784 | 1.839
313.15 K, 1000 kPa | 0.4677 | 0.5722 | 0.9858 | 1.862
313.15 K, 5000 kPa | 0.4936 | 0.6074 | 1.043 | 1.947
313.15 K, 10000 kPa | 0.5264 | 0.6501 | 1.11 | 2.041
313.15 K, 20000 kPa | 0.5924 | 0.7349 | 1.253 | 2.262
313.15 K, 30000 kPa | 0.6612 | 0.8188 | 1.4 | 2.503
313.15 K, 40000 kPa | 0.7328 | 0.9032 | 1.559 | 2.734
313.15 K, 50000 kPa | 0.8134 | 0.987 | 1.707 | 2.99
313.15 K, 60000 kPa | 0.8859 | 1.082 | 1.869 | 3.237
313.15 K, 70000 kPa | 0.9597 | 1.179 | 2.049 | 3.558
313.15 K, 80000 kPa | 1.04 | 1.272 | 2.23 | 3.841
313.15 K, 100000 kPa | 1.223 | 1.509 | 2.621 | 4.456
313.15 K, 120000 kPa | 1.414 | – | – | –
